Patent publication US4648996A, “Phenyl substituted-2,4,6,8-nonatetraenoic acid” (Hoffmann-La Roche Inc., priority 1985, dated 1987)

Tests used:
[1] = tested on: carrageenan pleurisy in rats; test: Non-immune inflammation, 4 hr carrageenan pleurisy; type: in vivo, Female Alderley Park Strain 1 rats; conditions: 10 days
Protocol: Female Alderley Park Strain 1 rats weighing 170-205 g. at the start of the experiment were used.
Lambda-carrageenan. Prepared as a solution in saline and sterilized by autoclaving.
Compound A was administered orally to groups of 8 rats once daily for 10 days at doses of 10, 30 and 100 mg.kg^-1. Control animals received the vehicle. One hour after the last dose the animals were anesthetised with methohexitone (Brietal, 50 mg.kg^-1) and 0.2 ml of 1% lambda carrageenan was injected into the pleural cavity. Four hours later the animals were killed with an overdose of pentobarbitone (Sagatal), the pleural exudate was collected and the pleural cavity was washed out with 2 ml of phosphate-buffered saline (PBS-A, Oxoid). The exudate volume was recorded and cell counts were determined using an automatic cell counter (Coulter). Differential cell counts were performed on exudate smears stained with Giemsa stain in order to determine separately the numbers of polymorphonuclear leucocytes (PMN) and mononuclear cells (MN).
Immediately after recovery of the pleural exudates the tibiae of the animals were excised and their breaking strains were determined.
The body weights of the animals were recorded daily. Statistical analyses were performed using Student's two-tailed t test.

[2] = tested on: impregnated sponge granuloma in the rat; test: Impregnated sponge granuloma test in the rat; type: in vivo, AHH/R female rats (PVG derived)
Protocol: AHH/R female rats (PVG derived) with an initial weight range of 120-140 g. were used.
Sponge preparation. Pellets (6.5 mm diameter) were punched from cellulose sponge cloth ("Wettex") and 0.1 ml. of a suspension containing 0.5 mg.ml^-1 of heat killed M. tuberculosis (human strains C, DT and PN) in sterile saline was applied to each pellet. The pellets were dried, weighed and autoclaved.
Rats were randomly divided into groups of five and daily dosing with test compounds was commenced. After the fifth dose the rats were anaesthetised with Sagatal (45 mg.kg^-1 i.p.) the backs were shaved and two pellets were implanted subcutaneously (one each side) into each rat through a small dorsal midline incision. The incision was closed and the rats allowed to recover from the anaesthetic.
Seven days after implantation the rats were killed and the pellets were removed, dissected free of extraneous tissue and weighed. Each pellet was then placed in a 4 ml aliquot of distilled water, chopped with fine scissors and sonicated. After centrifugation the Na^+ and K^+ content of the supernatant was determined by flame photometry. In addition the adrenal and thumus glands from each rat were dissected out and weighed and the lower hind limbs were removed for measurement of tibial bone breaking strain. Body weights were also recorded throughout the test period.
The mean ± SE for each of the parameters was calculated and differences from the control values were determined by Student's t test (2-tailed). Percentage reductions of granuloma weight, Na^+ and K^+ content and percentage changes of adrenal and thymus, weight and tibial breaking strain were determined.

[3] = tested on: adjuvant arthritis in the rat; test: Developing adjuvant arthritis in the rat; type: in vivo, AHH/R Female rats (PVG derived); conditions: for Joint Mobility (% INC) / Lesion Score (% RDN): day 15; for % reduction of paw swelling, Primary (right): days 0-4; for % reduction of paw swelling, Secondary (left) / % reduction of paw swelling, Secondary (right): days 8-15
Protocol: AHH/R Female rats (PVG derived with an initial weight range of 110 to 140 g. were used.
Adjuvant for injection. An homogenized suspension of heat killed M tuberculosis (Human strains C, DT and PN), 5 mg.Ml^-1 in liquid paraffin was prepared.
Rats were randomly split into groups of five and adjuvant arthritis was induced by the sub-plantar injection of 0.1 ml of adjuvant suspension into the right hind paw of each rat. Test compounds were administered by intubation each morning commencing the day of adjuvant injection. Two groups of control rats were dosed with the vehicle as was a group of three normal rats included for comparative purposes. Dosing was carried out daily until the end of the test on day 15 except for the first weekend (days 5 & 6). Treatment groups are shown in Table III and include etretinate as standard retinoid.
Measurements of right hind paw volume were made initially and on days 2 and 4 after and adjufant injection (primary phase). Right and left hind paw volume were then measured, on day 8 and every two or three days until the end of the experiment on day 15 (secondary phase). At this time the mobility of each ankle joint and the incidence and severity of secondary lesions on nose, ears, forepaws, left hind paw and tail were also assessed in terms of degrees of flexion possible and by using an arbitrary scoring system, respectively.
The time course curves for the injected paws were integrated from days 0 to 4 to reflect primary swelling and from days 8 to 15 (secondary swelling). The secondary swelling in the non-injected paw was integrated similarly from days 8 to 15. Calculations were carried out using a specific computer program which computed mean ± se for each integrated area. The significance of differences from controls was determined by Student's t test (2 tailed) and percentage reductions from control areas were calculated. Percentage improvements in joint mobility and percentage reductions in lesion score were also determined. In the latter case the Wilcoxon rank sum test (2 tailed) was used to express the difference from the control score using raw data. Mean body weight change in each group was recorded.

For `CCCCCCCCCOc1ccccc1/C=C/C(C)=C/C=C/C(C)=C/C(=O)O` [Compound A, All(E)-9-[2(nonyloxy)phenyl]-3,7-dimethyl-2,4,6,8-nonatetraenoic acid], the “Exudate Volume” value ([1]; 10 mg per kg per day p.o.) was 0.94 mL, the “Exudate Volume % change” value ([1]; 10 mg per kg per day p.o.) was -32.8% and the “Tibial Breaking Strain (Right + Left) % change” value ([1]; 10 mg per kg per day p.o.) was -3.4%. For the same molecule, the “Tibial Breaking Strain (Right + Left) Mean” value ([1]; 10 mg per kg per day p.o.) was 6.5 kg, the “Total Cell Count” value ([1]; 10 mg per kg per day p.o.) was 120.8 ×10^6 and the “Total Cell Count % change” value ([1]; 10 mg per kg per day p.o.) was -6.5%. For the same molecule, the “Total MN” value ([1]; 10 mg per kg per day p.o.) was 8.4 ×10^6, the “Total MN % change” value ([1]; 10 mg per kg per day p.o.) was -17.4% and the “Total PMN” value ([1]; 10 mg per kg per day p.o.) was 112.4 ×10^6. For the same molecule, the “Total PMN % change” value ([1]; 10 mg per kg per day p.o.) was -5.6%, the “Exudate Volume” value ([1]; 30 mg per kg per day p.o.) was 0.88 mL and the “Exudate Volume % change” value ([1]; 30 mg per kg per day p.o.) was -36.9%. The “Tibial Breaking Strain (Right + Left) % change” value ([1]; 30 mg per kg per day p.o.) was “+1.5%”, the “Tibial Breaking Strain (Right + Left) Mean” value ([1]; 30 mg per kg per day p.o.) was 6.8 kg and the “Total Cell Count” value ([1]; 30 mg per kg per day p.o.) was 112.1 ×10^6. The “Total Cell Count % change” value ([1]; 30 mg per kg per day p.o.) was -13.3%, the “Total MN” value ([1]; 30 mg per kg per day p.o.) was 7.9 ×10^6 and the “Total MN % change” value ([1]; 30 mg per kg per day p.o.) was -23.1%. For the same molecule, the “Total PMN” value ([1]; 30 mg per kg per day p.o.) was 104.2 ×10^6, the “Total PMN % change” value ([1]; 30 mg per kg per day p.o.) was -12.4% and the “Exudate Volume” value ([1]; 100 mg per kg per day p.o.) was 0.80 mL. The “Exudate Volume % change” value ([1]; 100 mg per kg per day p.o.) was -42.9%, the “Tibial Breaking Strain (Right + Left) % change” value ([1]; 100 mg per kg per day p.o.) was -0.3% and the “Tibial Breaking Strain (Right + Left) Mean” value ([1]; 100 mg per kg per day p.o.) was 6.7 kg. The “Total Cell Count” value ([1]; 100 mg per kg per day p.o.) was 109.1 ×10^6, the “Total Cell Count % change” value ([1]; 100 mg per kg per day p.o.) was -15.7% and the “Total MN” value ([1]; 100 mg per kg per day p.o.) was 7.5 ×10^6. The “Total MN % change” value ([1]; 100 mg per kg per day p.o.) was -26.7%, the “Total PMN” value ([1]; 100 mg per kg per day p.o.) was 101.6 ×10^6 and the “Total PMN % change” value ([1]; 100 mg per kg per day p.o.) was -14.7%. For the same molecule, the “% reduction of granuloma K+” value ([2]; 15 mg.kg^-1 p.o.) was -6.9%, the “% reduction of granuloma Na+” value ([2]; 15 mg.kg^-1 p.o.) was 14.5% and the “% reduction of granuloma Wet weight” value ([2]; 15 mg.kg^-1 p.o.) was 15.1%. The “% reduction of granuloma K+” value ([2]; 45 mg.kg^-1 p.o.) was 0.8%, the “% reduction of granuloma Na+” value ([2]; 45 mg.kg^-1 p.o.) was 11% and the “% reduction of granuloma Wet weight” value ([2]; 45 mg.kg^-1 p.o.) was 10.8%. The “Joint Mobility (% INC)” value ([3]; 15 mg.kg^-1 p.o.) was 66%, the “Lesion Score (% RDN)” value ([3]; 15 mg.kg^-1 p.o.) was 72% and the “% reduction of paw swelling, Primary (right)” value ([3]; 15 mg.kg^-1 p.o.) was -6%. For the same molecule, the “% reduction of paw swelling, Secondary (left)” value ([3]; 15 mg.kg^-1 p.o.) was 94%, the “% reduction of paw swelling, Secondary (right)” value ([3]; 15 mg.kg^-1 p.o.) was 30% and the “Joint Mobility (% INC)” value ([3]; 45 mg.kg^-1 p.o.) was 66%. For the same molecule, the “Lesion Score (% RDN)” value ([3]; 45 mg.kg^-1 p.o.) was 65%, the “% reduction of paw swelling, Primary (right)” value ([3]; 45 mg.kg^-1 p.o.) was 16% and the “% reduction of paw swelling, Secondary (left)” value ([3]; 45 mg.kg^-1 p.o.) was 75%. The “% reduction of paw swelling, Secondary (right)” value ([3]; 45 mg.kg^-1 p.o.) was 51%.
